“And” between values parts separate entries of the source, which are not always exact repeats. Identical values can stand only once.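 Following 48 hours of exposure in 96-well plates, responses at five concentrations were used to interpolate endpoints linearly. GI50 = concentration required for 50% inhibition of growth. The concentration for full growth arrest is given as TGI.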
Tests used:
Assay in all cases: NCI tumour cell line growth inhibition, 48 h
BT-549 breast = system: BT-549 breast
COLO 205 colon = system: COLO 205 colon
DU-145 prostate = system: DU-145 prostate
HCT-116 colon = system: HCT-116 colon
LOX IMVI melanoma = system: LOX IMVI melanoma
NCI-H23 lung = system: NCI-H23 lung
OVCAR-5 ovarian = system: OVCAR-5 ovarian
RPMI-8226 leukemia = system: RPMI-8226 leukemia
SN12C renal = system: SN12C renal
UACC-257 melanoma = system: UACC-257 melanoma

Row | SMILES | GI50 (BT-549 breast) | TGI (BT-549 breast) | GI50 (COLO 205 colon) | TGI (COLO 205 colon) | GI50 (DU-145 prostate) | TGI (DU-145 prostate) | GI50 (HCT-116 colon) | TGI (HCT-116 colon) | GI50 (LOX IMVI melanoma) | TGI (LOX IMVI melanoma) | GI50 (NCI-H23 lung) | TGI (NCI-H23 lung) | GI50 (OVCAR-5 ovarian) | TGI (OVCAR-5 ovarian) | GI50 (RPMI-8226 leukemia) | TGI (RPMI-8226 leukemia) | GI50 (SN12C renal) | TGI (SN12C renal) | GI50 (UACC-257 melanoma) | TGI (UACC-257 melanoma)
1 | CC(=O)Oc1cc2c(OC(C)=O)c(-c3c(C)cc4c(C(C)C)c(OC(C)=O)c(OC(C)=O)cc4c3OC(C)=O)c(C)cc2c(C(C)C)c1OC(C)=O | 4.07 µM and 5.16 µM and 9.94 µM | 9.05 µM and 10.2 µM and 26.6 µM | 9.61 µM and 5.5 µM and 10.1 µM | 13 µM and 21.3 µM | 5.3 µM and 5.17 µM and 9.94 µM | 11.1 µM and 10.2 µM and 23.6 µM | 6.22 µM and 6.63 µM and 7.46 µM | 14.3 µM and 15.9 µM and 14.4 µM | 4.4 µM and 5.26 µM and 17.3 µM | 8.52 µM and 11.3 µM and 32 µM | 5.06 µM and 5.46 µM and 8.84 µM | 9.63 µM and 9.93 µM and 19.1 µM | 5.86 µM and 5.87 µM and 9.81 µM | 13.6 µM and 12.9 µM and 25 µM | 5.36 µM and 5.79 µM and 7.94 µM | 14 µM and 15.4 µM and 20.4 µM | 1.21 µM and 1.22 µM and 6.11 µM | 2.44 µM and 8.04 µM and 12.8 µM | 5.23 µM and 2.58 µM and 8.39 µM | 14.4 µM and 10.5 µM and 25.6 µM
2 | O=C(CCC(C(=O)c1ccccc1)c1ccccc1)c1ccccc1 (centres undefined) | 7.92 µM | 86.7 µM | 8.8 µM | > 100 µM | 30.1 µM | > 100 µM | 6.45 µM | > 100 µM | 20.7 µM | > 100 µM | 10.8 µM | > 100 µM | 80.4 µM | > 100 µM | 5.75 µM | 76.1 µM | 20.2 µM | > 100 µM | 17.5 µM | > 100 µM
3 | Cc1cc(O)cc(C)c1/C=C/c1cncc(-c2nn[nH]n2)c1 | > 25 µM | > 25 µM | > 25 µM | > 25 µM | > 25 µM | > 25 µM | > 25 µM | > 25 µM | > 25 µM | > 25 µM | > 25 µM | > 25 µM | > 25 µM | > 25 µM | > 25 µM | > 25 µM | > 25 µM | > 25 µM | > 25 µM | > 25 µM
4 | CCOC(=O)[C@@H](C)C[C@H](Cc1ccccc1)NC(=O)c1csc([C@@H](C[C@H](C(C)C)N(C)C(=O)[C@H](CC)NC(=O)[C@H]2CCCCN2C)OC(C)=O)n1 | 0.00368 µM | 0.143 µM | < 0.00167 µM | 0.0211 µM | < 0.00167 µM | 0.253 µM | < 0.00167 µM | 1.68 µM | 0.00842 µM | > 16.7 µM | 0.00476 µM | > 16.7 µM | 0.0108 µM | > 16.7 µM | < 0.00167 µM | > 16.7 µM | 0.00515 µM | > 16.7 µM | > 16.7 µM | > 16.7 µM
5 | C/C(=C\COc1c2c(cc3c1CCO3)OC1(C=C2)OC(CC/C(C)=C/COc2c3ccoc3cc3oc(=O)ccc23)C(C)(C)O1)CCC(O)C(C)(C)O (centres undefined) | 16.7 µM | > 100 µM | 23.1 µM | > 100 µM | > 100 µM | > 100 µM | 18.4 µM | > 100 µM | 28.2 µM | > 100 µM | 33.7 µM | > 100 µM | 80.2 µM | > 100 µM | 2.95 µM | 23.2 µM | 89.1 µM | > 100 µM | 25.3 µM | > 100 µM
6 | COc1ccc2c(c1OC)OCC(CN(C)C)C2=O (centres undefined) |  | 38.7 µM |  | 21.6 µM |  | 34.5 µM |  | 31.4 µM |  | 31.2 µM |  | 35.8 µM |  | 35.7 µM |  | 8.56 µM |  | 34 µM |  | 30.8 µM
7 | COc1cnc2c(c1)C(=O)c1c-2n(CCCNC(C)C)c(=O)c2cc(F)ccc12 | 0.655 µM | 4.09 µM | 0.0905 µM | 0.643 µM | 0.21 µM | 1.04 µM | 0.093 µM | 0.328 µM | 0.114 µM | 0.249 µM | 0.176 µM | 0.676 µM | 0.277 µM | 0.856 µM | 0.154 µM | 0.951 µM | 0.164 µM | 0.831 µM | 0.47 µM | 2.07 µM
8 | CSc1ncnc2c1ncn2C1OC(CO)C(O)OC1O (centres undefined) |  | 48.5 µM |  | 11.8 µM |  | 39.4 µM |  | 21.6 µM |  | 15.4 µM |  | > 44 µM |  | > 23.3 µM |  | 79.5 µM |  | 41.3 µM |  | 15.2 µM
9 | C=C1C(=O)O[C@@H]2C1C[C@@H](O)C(=C)CC/C=C(\C)CCC[C@H](C)[C@H]2OC(C)=O (some centres undefined) | 2.73 µM | 7.46 µM | 2.93 µM | > 100 µM | 11.9 µM | 25.3 µM | 1.4 µM | 3.06 µM | 2.14 µM | 6.07 µM | 3.71 µM | 15 µM | 10.3 µM | 22.4 µM | 2.52 µM | 6.61 µM | 3.5 µM | 15.3 µM | 16 µM | 35.9 µM
10 | O=c1oc2ccc(-n3c(=O)c4ccccc4c4ccccc4c3=O)cc2c2ccccc12 |  | > 100 µM |  | > 100 µM |  |  |  | > 100 µM |  | > 100 µM |  | > 100 µM |  | > 100 µM |  | > 100 µM |  | > 100 µM |  | > 100 µM
11 | O=C(/C(=C/c1ccc([N+](=O)[O-])cc1)SCc1ccc(F)cc1)c1ccc(Cl)cc1 | 3.38 µM | 16.4 µM | 6.46 µM | 28.5 µM | 38.6 µM | > 100 µM |  |  | 1.73 µM | 3.27 µM | 11 µM | 68.7 µM | 12.7 µM | 38.9 µM | 1.92 µM | 6.36 µM | 6.94 µM | 34.5 µM | 16 µM | 34.2 µM
12 | CCCCCCCCCCCCCCCCOP(=O)(O)OP(=O)(O)OCC1OC(n2ccc(N)nc2=O)C(O)C1O (centres undefined) |  | > 100 µM |  | > 100 µM |  | > 100 µM |  | > 100 µM | > 100 µM and 28.3 µM | > 100 µM | > 100 µM and 38 µM | > 100 µM |  | > 100 µM |  | > 100 µM | > 100 µM and 19.4 µM | > 100 µM |  | > 100 µM
13 | CC[C@@]1(O)C(=O)OCc2c1cc1n(c2=O)Cc2c-1nc1cc3c(cc1c2C)OCO3 | 0.0205 µM |  | 0.102 µM | > 100 µM | < 0.0001 µM | > 100 µM | 0.0181 µM | 15.1 µM | < 0.0001 µM | 0.0319 µM and 0.0306 µM | < 0.0001 µM | 0.105 µM and 0.0116 µM | 0.0694 µM | 0.0379 µM | < 0.0001 µM | 0.23 µM | < 0.0001 µM | 27 µM | 0.0159 µM | 0.278 µM
14 | CCN(CC)CCNc1cc(-c2cccc(OC(F)(F)F)c2)nc2ccc(N3CCCC3)cc12 | 1.6 µM and 1.83 µM and 1.85 µM | 3.11 µM and 3.47 µM and 3.57 µM | 1.45 µM and 1.69 µM | 2.91 µM and 3.24 µM | 1.85 µM and 2.36 µM and 3.59 µM | 4.1 µM and 5.44 µM and 12.8 µM | 1.24 µM and 1.26 µM and 1.54 µM | 2.52 µM and 2.72 µM and 3.05 µM | 1.56 µM and 1.39 µM and 1.73 µM | 2.96 µM and 2.73 µM and 3.19 µM | 1.82 µM and 1.87 µM and 1.89 µM | 3.65 µM and 3.72 µM | 1.94 µM and 2.24 µM | 3.93 µM and 3.83 µM and 6.12 µM | 1.35 µM and 1.6 µM and 1.69 µM | 3.54 µM and 3.94 µM and 4.22 µM | 1.69 µM and 1.53 µM and 1.89 µM | 3.37 µM and 2.98 µM and 3.86 µM | 1.81 µM and 1.76 µM | 3.51 µM and 3.32 µM and 3.6 µM

— PubChem BioAssay (NCI)
